Measured values published in paper PMC6433232, “Targeting mitochondria in cancer therapy could provide a basis for the selective anti-cancer activity” (PLoS ONE, 2019).
Several values for one entry are separate records, joined by “and”; a condition that tells them apart may be missing. Equal entries are not always repeated. Where two headings read alike, the source gives them in different places.

Tested on: primary acute myeloid leukemia (AML) cells obtained from patients
Test: Kinase inhibitor library screening with and without NSC130362, primary AML cells
Type: cell-based, Human
[1] = ratio of EC50 for inhibitor to EC50 for inhibitor/NSC130362 combination, NSC130362 10 μM
[2] = ratio of EC50 for inhibitor to EC50 for inhibitor/NSC130362 combination, NSC130362 10 μM, Screen N 2

SMILES	EC50 decrease, fold (Screen N 1) [1] [fold]	EC50 decrease, fold (Screen N 2) [2] [fold]	EC50 decrease, fold (Screen N 3) [1]	EC50 decrease, fold (Screen N 2)
CCOc1cc2ncc(C#N)c(Nc3ccc(OCc4ccccn4)c(Cl)c3)c2cc1NC(=O)/C=C/CN(C)C [Neratinib (HKI-272)]	5.7	1.0	1.0 fold	–
Cc1cn(-c2cc(NC(=O)c3ccc(C)c(Nc4nccc(-c5cccnc5)n4)c3)cc(C(F)(F)F)c2)cn1 [Nilotinib]	–	1.0	1.0 fold	–
COc1ccc(C2=N[C@@H](c3ccc(Cl)cc3)[C@@H](c3ccc(Cl)cc3)N2C(=O)N2CCNC(=O)C2)c(OC(C)C)c1 [Nutlin 3a]	0.1	1.0	0.9 fold	–
COc1cc(OC)c(/C=C/S(=O)(=O)Cc2ccc(OC)c(NCC(=O)O)c2)c(OC)c1 [ON-01910]	–	1.0	–	–
Cc1sc2c(c1C)C(c1ccc(Cl)cc1)=N[C@@H](CC(=O)Nc1ccc(O)cc1)c1nnc(C)n1-2 [OTX-015]	–	0.8	–	–
CSc1cccc(Nc2ncc3cc(-c4c(Cl)cccc4Cl)c(=O)n(C)c3n2)c1 [PD173955]	0.9	1.0	5.1 fold	–
Cc1[nH]c(/C=C2\C(=O)Nc3ccc(S(=O)(=O)Cc4c(Cl)cccc4Cl)cc32)c(C)c1C(=O)N1CCC[C@@H]1CN1CCCC1 [PHA-665752]	1.1	1.0	0.226 fold	–
CCCCCCCCCCCCc1ccc(S(=O)(=O)Nc2nncs2)cc1 [PHT-427]	1.0	1.0	1.0 fold	–
Oc1cccc(-c2nc(N3CCOCC3)c3oc4ncccc4c3n2)c1 [PI-103]	0.452	2.6	1089.9 fold	–
NC(=O)c1cnc(N[C@@H]2CCCC[C@@H]2N)nc1Nc1cccc(-n2nccn2)c1 [PRT062607]	8.1	1.0	265.0 fold	–
CC(=O)c1c(C)c2cnc(Nc3ccc(N4CCNCC4)cn3)nc2n(C2CCCC2)c1=O [Palbociclib]	1.6	1.0	1.8 fold	–
Cc1[nH]c2ccccc2c1CCNCc1ccc(/C=C/C(=O)NO)cc1 [Panobinostat]	9.3	1.2	0.0014 fold	–
Cc1ccc(Nc2nccc(N(C)c3ccc4c(C)n(C)nc4c3)n2)cc1S(N)(=O)=O [Pazopanib (GW786034)]	1.0	1.0	193.3 fold and 170.6 fold	–
CCOc1cc2ncc(C#N)c(Nc3ccc(F)c(Cl)c3)c2cc1NC(=O)/C=C/CN(C)C [Pelitinib (EKB-569)]	1.4	0.843	46.0 fold	–
Cc1ccc(C(=O)Nc2ccc(CN3CCN(C)CC3)c(C(F)(F)F)c2)cc1C#Cc1cnc2cccnn12 [Ponatinib (AP24534)]	–	–	–	0.9 fold and 1.1 fold
CC(C)(C)c1cc(NC(=O)Nc2ccc(-c3cn4c(n3)sc3cc(OCCN5CCOCC5)ccc34)cc2)no1 [Quizartinib (AC220)]	–	1.0	–	–
